From patent US20250313535A1, “ALPHA 4 BETA 7 INTEGRIN MODULATORS AND USES THEREOF” (DICE MOLECULES SV, INC., priority 2022, published 2025)
Where two headings read alike, the source gives them in different places.

Key:
α4β7 integrin = α4β7 integrin (Homo sapiens (Human), UniProt P13612+P26010); test: Integrin Adhesion Assay: Protocol 1 (MAdCAM-coated plate, RPMI-8866 cells, CellTiter GLO readout); format: cell-based
In short: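 RPMI-8866 cells (2×10^6 per mL) added with compounds (1% DMSO) to MAdCAM-coated wells blocked in HEPES/NaCl buffer with 1 mM MnCl2, 0.1 mM CaCl2, 1% BSA; 1 h at 37° C, 5% CO2. After four washes, bound cells read by CellTiter GLO luminescence; % inhibition vs DMSO and control wells, 4-parameter fit.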

α4β1 integrin = α4β1 integrin (Homo sapiens (Human), UniProt P05556+P13612); test: Integrin Adhesion Assay: Protocol 5 (VCAM-coated plate, RPMI-8866 cells with stable LOF mutation of the ITGB7 gene); format: cell-based
In short: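 RPMI-8866 B cells with CRISPR/Cas9 ITGB7 knockout (clonal, verified by flow cytometry) adhered to VCAM-coated wells for 1 h at 37° C in HEPES/NaCl buffer with 1 mM MnCl2, 0.1 mM CaCl2, 1% BSA, 1% DMSO. Bound cells quantified by CellTiter-Glo luminescence after washing; % inhibition versus DMSO and control, 4-parameter fit.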

[1] = RPMI-8866 cells with stable LOF mutation of the ITGB7 gene, read-out: Mean IC50 α4β1 KO^b
[2] = Protocol 5, RPMI-8866 cells with LOF mutation of ITGB7, VCAM, read-out: Mean IC50 α4β1 KO

α4β7 integrin, sequence (P13612 34-1032): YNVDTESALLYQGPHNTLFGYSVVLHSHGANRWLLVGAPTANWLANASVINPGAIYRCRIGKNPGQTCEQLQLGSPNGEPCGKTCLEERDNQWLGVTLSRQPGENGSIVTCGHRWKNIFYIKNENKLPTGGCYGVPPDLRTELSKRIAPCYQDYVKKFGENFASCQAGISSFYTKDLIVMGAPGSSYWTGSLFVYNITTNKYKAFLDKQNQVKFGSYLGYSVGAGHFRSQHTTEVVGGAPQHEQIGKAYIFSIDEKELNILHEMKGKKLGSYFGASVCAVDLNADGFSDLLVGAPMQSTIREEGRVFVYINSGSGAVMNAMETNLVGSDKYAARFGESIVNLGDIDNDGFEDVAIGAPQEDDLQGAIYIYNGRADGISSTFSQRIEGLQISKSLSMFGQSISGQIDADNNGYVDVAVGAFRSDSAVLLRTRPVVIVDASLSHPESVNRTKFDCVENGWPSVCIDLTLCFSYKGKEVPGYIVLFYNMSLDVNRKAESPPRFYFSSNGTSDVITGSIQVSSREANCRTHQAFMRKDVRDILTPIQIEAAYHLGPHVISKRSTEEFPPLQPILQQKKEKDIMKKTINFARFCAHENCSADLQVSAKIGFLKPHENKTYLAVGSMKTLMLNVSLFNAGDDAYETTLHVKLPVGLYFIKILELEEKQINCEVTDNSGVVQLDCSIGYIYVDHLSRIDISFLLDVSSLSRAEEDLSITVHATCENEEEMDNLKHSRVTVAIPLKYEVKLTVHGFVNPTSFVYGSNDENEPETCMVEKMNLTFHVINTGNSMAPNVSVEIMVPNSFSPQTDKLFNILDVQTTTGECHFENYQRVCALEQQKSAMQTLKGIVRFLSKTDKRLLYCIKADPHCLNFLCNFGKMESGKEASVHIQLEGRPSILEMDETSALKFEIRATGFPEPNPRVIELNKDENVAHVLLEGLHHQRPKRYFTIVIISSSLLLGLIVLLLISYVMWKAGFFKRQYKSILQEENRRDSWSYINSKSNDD
α4β7 integrin, sequence (P26010 20-798): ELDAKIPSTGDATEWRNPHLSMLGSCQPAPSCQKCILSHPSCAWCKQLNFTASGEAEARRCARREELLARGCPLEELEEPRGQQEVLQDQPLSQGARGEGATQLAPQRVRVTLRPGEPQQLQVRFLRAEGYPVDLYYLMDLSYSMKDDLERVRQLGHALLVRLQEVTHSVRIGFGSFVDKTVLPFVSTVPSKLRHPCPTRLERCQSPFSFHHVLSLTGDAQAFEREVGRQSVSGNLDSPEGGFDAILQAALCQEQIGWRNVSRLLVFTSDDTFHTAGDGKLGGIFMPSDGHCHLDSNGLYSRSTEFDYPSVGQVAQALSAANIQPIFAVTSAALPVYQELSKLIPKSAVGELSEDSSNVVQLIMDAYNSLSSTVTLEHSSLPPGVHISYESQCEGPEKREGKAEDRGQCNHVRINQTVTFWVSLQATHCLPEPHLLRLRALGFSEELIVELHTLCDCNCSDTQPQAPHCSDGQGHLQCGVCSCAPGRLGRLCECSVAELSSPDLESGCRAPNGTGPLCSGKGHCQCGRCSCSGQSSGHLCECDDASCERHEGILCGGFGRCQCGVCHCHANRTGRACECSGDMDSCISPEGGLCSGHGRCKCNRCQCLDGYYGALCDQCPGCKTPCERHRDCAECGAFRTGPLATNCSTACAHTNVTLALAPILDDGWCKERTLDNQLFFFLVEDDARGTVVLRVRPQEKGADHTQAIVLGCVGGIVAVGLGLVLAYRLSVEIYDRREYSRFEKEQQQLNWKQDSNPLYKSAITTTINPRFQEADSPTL
α4β1 integrin, sequence (P13612 34-1032): as the sequence (P13612 34-1032) above
α4β1 integrin, sequence (P05556 21-798): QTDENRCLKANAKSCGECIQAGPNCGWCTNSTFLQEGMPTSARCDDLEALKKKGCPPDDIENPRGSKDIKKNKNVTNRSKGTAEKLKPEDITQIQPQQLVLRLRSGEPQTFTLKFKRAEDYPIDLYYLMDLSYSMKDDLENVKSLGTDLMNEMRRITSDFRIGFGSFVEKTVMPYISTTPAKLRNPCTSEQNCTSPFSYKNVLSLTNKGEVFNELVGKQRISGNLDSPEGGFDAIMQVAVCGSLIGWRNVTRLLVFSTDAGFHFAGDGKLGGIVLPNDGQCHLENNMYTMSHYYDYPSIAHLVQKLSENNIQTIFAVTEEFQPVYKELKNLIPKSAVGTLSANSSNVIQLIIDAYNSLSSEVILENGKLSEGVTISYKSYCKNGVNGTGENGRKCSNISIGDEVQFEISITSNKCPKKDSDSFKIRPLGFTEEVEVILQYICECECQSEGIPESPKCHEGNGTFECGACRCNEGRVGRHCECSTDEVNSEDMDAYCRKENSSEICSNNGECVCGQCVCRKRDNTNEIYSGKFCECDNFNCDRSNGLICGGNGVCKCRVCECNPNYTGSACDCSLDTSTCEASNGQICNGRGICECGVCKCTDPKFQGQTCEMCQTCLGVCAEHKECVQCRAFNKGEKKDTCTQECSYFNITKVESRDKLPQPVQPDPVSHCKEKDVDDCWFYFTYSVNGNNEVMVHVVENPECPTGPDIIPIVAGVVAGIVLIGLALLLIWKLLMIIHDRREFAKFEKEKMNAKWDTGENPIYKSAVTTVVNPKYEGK

Structure (SMILES) | IC50 (α4β7 integrin) [nM] | IC50 (α4β1 integrin; [1]) [nM] | IC50 (α4β7 integrin; protocol not given) [nM] | IC50 (α4β1 integrin; [2]) [nM]
Cc1n[nH]c(C)c1-c1cc(F)c(C(=O)N[C@@H](Cc2cccc3c(-c4c(C(F)(F)F)c5ccccc5n(C)c4=O)cccc23)C(=O)O)c(F)c1 [Compound 308] | 10 to 100 | > 1000 | – | –
CN1CCN(Cc2cccc(F)c2C(=O)N[C@@H](Cc2cccc3c(-c4c(C(F)(F)F)c5ccccc5n(C)c4=O)cccc23)C(=O)O)CC1 [Compound 353] | 10 to 100 | > 1000 | – | –
Cc1cccc(C)c1-c1cc(F)c(C(=O)N[C@@H](Cc2cccc3c(-n4c(=O)cc(CCN5CC(F)C5)n(C)c4=O)cccc23)C(=O)O)c(F)c1 [Compound 1057] | – | – | 10 to 100 | > 1000
Cc1n[nH]c(C)c1-c1ccc(F)c(C(=O)N[C@@H](Cc2cccc3c(-c4c(C(F)(F)F)c5ccccc5n(C)c4=O)cccc23)C(=O)O)c1F [Compound 309] | 10 to 100 | > 1000 | – | –
Cn1c(=O)c(-c2cccc3c(C[C@H](NC(=O)c4c(F)cc(C5CCC(F)(F)CC5)cc4F)C(=O)O)cccc23)c(C(F)(F)F)c2ccccc21 [Compound 381] | 100 to 1000 | > 1000 | – | –
Cn1c(=O)c(-c2cccc3c(C[C@H](NC(=O)[C@]4(C)CC[C@@H](N5CCOC[C@@H]5C(F)(F)F)CC4)C(=O)O)cccc23)c(C(F)(F)F)c2ccccc21 [Compound 346] | 10 to 100 | > 1000 | – | –
Cn1c(=O)c(-c2cccc3c(C[C@H](NC(=O)c4c(F)cc5cnn(CC(F)(F)F)c5c4F)C(=O)O)cccc23)c(C(F)(F)F)c2ccccc21 [Compound 322] | 10 to 100 | 100 to 1000 | – | –
Cn1c(C(F)(F)F)cc(C(F)(F)F)c(-c2cccc3c(C[C@H](NC(=O)C4(C(F)(F)F)CCN(CC(F)(F)F)CC4)C(=O)O)cccc23)c1=O [Compound 431] | < 10 | 100 to 1000 | – | –
CN(C)Cc1ccc2c(-c3cccc4c(C[C@H](NC(=O)c5c(F)cc(N6CCOC[C@@H]6C(F)(F)F)cc5CN5CCOCC5)C(=O)O)cccc34)nccc2c1 [Compound 557] | < 10 | > 1000 | – | –
Cc1cncc(C)c1-c1ccc(F)c(C(=O)N[C@@H](Cc2cccc3c(-c4c(C(F)(F)F)c5ccccc5n(C)c4=O)cccc23)C(=O)O)c1F [Compound 314] | 10 to 100 | > 1000 | – | –
CN(C)Cc1ccc2c(-c3cccc4c(C[C@H](NC(=O)[C@]5(C)CC[C@@H](N6CCC(F)(F)CC6)CC5)C(=O)O)cccc34)nccc2c1 [Compound 585] | < 10 | > 1000 | – | –
O=C(N[C@@H](Cc1cccc2c(-n3c(C(F)(F)F)cccc3=O)cccc12)C(=O)O)c1c(F)cccc1F [Compound 1040] | – | – | 10 to 100 | > 1000
Cn1c(=O)c(-c2cccc3c(C[C@H](NC(=O)C4(C)CCN(C5CCOCC5)CC4)C(=O)O)cccc23)c(C(F)(F)F)c2ccccc21 [Compound 362] | 10 to 100 | > 1000 | – | –
Cc1cc(N2CCOC[C@@H]2C(F)(F)F)cc(F)c1C(=O)N[C@@H](Cc1cccc2c(-c3c(C(F)(F)F)c4ccccc4n(C)c3=O)cccc12)C(=O)O [Compound 361] | 10 to 100 | > 1000 | – | –
CC[C@@H](Nc1cc(F)c(C(=O)N[C@@H](Cc2cccc3c(-c4c(C(F)(F)F)c5ccccc5n(C)c4=O)cccc23)C(=O)O)c(F)c1)C(F)(F)F [Compound 321] | 10 to 100 | > 1000 | – | –
Cn1c(=O)c(-c2cccc3c(C[C@H](NC(=O)c4c(F)cc(NC5COC5)cc4F)C(=O)O)cccc23)c(C(F)(F)F)c2ccccc21 [Compound 378] | 10 to 100 | > 1000 | – | –
Cn1c(=O)c(-c2cccc3c(C[C@H](NC(=O)c4c(F)ccc(-c5cccnc5)c4F)C(=O)O)cccc23)c(C(F)(F)F)c2ccccc21 [Compound 312] | 10 to 100 | > 1000 | – | –

Structure (SMILES) | IC50 (α4β7 integrin) [nM] | IC50 (α4β1 integrin; [1]) [nM] | IC50 (α4β7 integrin; protocol not given) [nM] | IC50 (α4β1 integrin; [2]) [nM]
CN(C)Cc1cccc(F)c1C(=O)N[C@@H](Cc1cccc2c(-c3cccc4ccncc34)cccc12)C(=O)O [Compound 357] | 10 to 100 | > 1000 | – | –
Cn1c(=O)c(-c2cccc3c(C[C@H](NC(=O)c4c(F)cc(C(F)(F)F)cc4F)C(=O)O)cccc23)c(C(F)(F)F)c2ccccc21 [Compound 325] | > 1000 | > 1000 | – | –
Cn1c(=O)c(-c2cccc3c(C[C@H](NC(=O)[C@]4(C)CC[C@H](N5CCOC[C@@H]5C(F)(F)F)CC4)C(=O)O)cccc23)c(C(F)(F)F)c2ccccc21 (single isomer, unassigned) [Compound 347] | 10 to 100 | > 1000 | – | –
Cn1c(C(F)(F)F)cc(C(F)(F)F)c(-c2cccc3c(C[C@H](NC(=O)[C@]4(C)CC[C@@H](N5CCOC[C@@H]5C(F)(F)F)CC4)C(=O)O)cccc23)c1=O [Compound 407] | 10 to 100 | > 1000 | – | –
O=C(N[C@@H](Cc1cccc2c(-c3cccc4ccncc34)cccc12)C(=O)O)c1c(F)cc(N2CCOC[C@@H]2C(F)(F)F)cc1CN1CCC(F)(F)CC1 [Compound 301] | 10 to 100 | > 1000 | – | –
CN(C)c1ccc2c(c1)c(C(F)(F)F)c(-c1cccc3c(C[C@H](NC(=O)[C@]4(C)CC[C@H](N5CCC(F)(F)CC5)CC4)C(=O)O)cccc13)c(=O)n2C [Compound 412] | > 1000 | > 1000 | – | –
Cc1ccnc(C)c1-c1ccc(F)c(C(=O)N[C@@H](Cc2cccc3c(-c4c(C(F)(F)F)c5ccccc5n(C)c4=O)cccc23)C(=O)O)c1F [Compound 315] | 10 to 100 | > 1000 | – | –
CN(C)Cc1ccc2c(c1)c(C(F)(F)F)c(-c1cccc3c(C[C@H](NC(=O)c4c(F)cc(N5CCOC[C@@H]5C(F)(F)F)cc4F)C(=O)O)cccc13)c(=O)n2C [Compound 698] | – | – | < 10 | 100 to 1000
COCCN(c1cc(F)c(C(=O)N[C@@H](Cc2cccc3c(-c4c(C(F)(F)F)c5ccccc5n(C)c4=O)cccc23)C(=O)O)c(F)c1)C1COC1 [Compound 393] | 10 to 100 | > 1000 | – | –
CN(C)Cc1cccc2c(-c3cccc4c(C[C@H](NC(=O)c5c(F)cc(N6CCOC[C@@H]6C(F)(F)F)cc5CN5CCOCC5)C(=O)O)cccc34)nccc12 [Compound 298] | < 10 | > 1000 | – | –
Cn1ccc(C(F)(F)F)c(-c2cccc3c(C[C@H](NC(=O)c4c(F)cc(N5CCOc6ccccc65)cc4F)C(=O)O)cccc23)c1=O [Compound 439] | 10 to 100 | > 1000 | – | –
CN(C)C1CCN(Cc2cc(N3CCOC[C@@H]3C(F)(F)F)cc(F)c2C(=O)N[C@@H](Cc2cccc3c(-c4cccc5ccncc45)cccc23)C(=O)O)CC1 [Compound 300] | < 10 | > 1000 | – | –
CN1CCN(c2cc(F)c(C(=O)N[C@@H](Cc3cccc4c(-c5c(C(F)(F)F)c6ccccc6n(C)c5=O)cccc34)C(=O)O)c(F)c2)CC1 [Compound 350] | 10 to 100 | > 1000 | – | –
CN(C)Cc1ccc2c(-c3cccc4c(C[C@H](NC(=O)[C@]5(C)CC[C@@H](N6CCOC[C@@H]6C(F)(F)F)CC5)C(=O)O)cccc34)nccc2c1 [Compound 581] | 10 to 100 | > 1000 | – | –
CN(C)c1ccc2c(c1)c(C(F)(F)F)c(-c1cccc3c(C[C@H](NC(=O)c4c(F)cc(N5CCOC[C@@H]5C(F)(F)F)cc4F)C(=O)O)cccc13)c(=O)n2C [Compound 302] | 10 to 100 | > 1000 | – | –
Cn1c(=O)c(-c2cccc3c(C[C@H](NC(=O)c4c(F)cc(N5CCOC[C@@H]5C(F)(F)F)cc4CN4CCCC4)C(=O)O)cccc23)c(C(F)(F)F)c2ccccc21 [Compound 359] | < 10 | > 1000 | – | –
